Experiment: Dose-adjusted serum concentrations of drug and metabolite (LC-MS/MS) by CYP2C19 and CYP2D6 metabolizer group
Type: in vivo, human
Details: for B, ARI concentrations in serum, CYP2D6 IM+PM / B, DHA concentrations in serum, CYP2D6 IM+PM: vs NM, dose-adjusted
Description: The 16-week study protocol consisted of two phases following screening and baseline visits. […] Blood samples were collected on Weeks 2, 10, and 16 to measure medication levels and on Week 4 for pharmacogenetic analyses. The methods used for the quantification of serum levels of drug and metabolite concentrations is described in the Supplementary Methods.
Serum concentrations were adjusted for dosage (i.e., ng/mL/mg). Sampling time (i.e., hours since the last dose) was entered as a covariate in the regression models to account for when the medication was taken.
The CYP2C19 metabolizer group was not included as a fixed effect covariate, as CYP2C19 is not known to be involved in the metabolism of ARI. […]
Collection of blood samples and quantification of serum drug and metabolite concentrations Participants self-reported the time at which the last dosage of the study medication was taken during the collection of the blood samples. […]
major metabolites, (S-DCT) and (DHA), were performed at the CAMH Clinical Laboratory using LC-MS/MS technology. Briefly, a mix of deuterated internal standards (Cerilliant) was added to 100 µL of each serum specimen, calibrator (Cerilliant) and quality control (MassCheck Antidepressants/Neuroleptics, Level 1 and Level 2). Proteins were precipitated with 300 µL of 9:1 Acetonitrile:Methanol (Sigma-Aldrich) followed by 5 min centrifugation at 9000 rpm. 25 µL of each supernatant was diluted with 200 µL of 0.1% Formic acid (Sigma-Aldrich) and then analyzed on the LC-MS/MS platform consisting of ThermoFisher TSQ Quantum Ultra mass spectrometer coupled with ThermoFisher Surveyor LC pump and HTC PAL autosampler fitted with a Kinetex F5 2.6 µm, 100 x 2.1 mm column (Phenomenex). Six minute gradient elution with 0.1% Formic Acid (mobile phase A) and Acetonitrile (mobile phase B) was applied. Collision energies ranged from 14 to […]
calibration curve ranging from 10 to 1000 ng/mL for each analyte.
Vendor nominal means for quality controls were used to assess the assay accuracy for each of the four analytes […]
precision was considered acceptable assay performance.
Data was analyzed with ThemoFisher XCalibur software.

Structure (SMILES) | B, ARI concentrations in serum, CYP2D6 IM+PM (Week 10, ESC+ARI arm) | B, ARI concentrations in serum, CYP2D6 IM+PM (Week 16, ESC+ARI arm) | lower DHA, CYP2D6 IM + PMs relative to NMs (Week 10, ESC + ARI) | B, DHA concentrations in serum, CYP2D6 IM+PM (Week 10, ESC+ARI arm) | B, DHA concentrations in serum, CYP2D6 IM+PM (Week 16, ESC+ARI arm)
O=C1CCc2ccc(OCCCCN3CCN(c4cccc(Cl)c4Cl)CC3)cc2N1 [ARI, Aripiprazole] | -2.48 | 1.54 |  |  | 
O=c1ccc2ccc(OCCCCN3CCN(c4cccc(Cl)c4Cl)CC3)cc2[nH]1 [DHA, dehydroaripiprazole] |  |  | 17.4% | -0.99 | -0.47

Reference: article PMC9448818 (Translational Psychiatry, 2022)
